The values that follow come from patent US10004761B2, “Malodor neutralizing composition” (priority 2016, dated 2018).

The structures appear in SMILES notation.

A short description of series [1]: TMA malodor neutralization by myrac aldehyde, evaluated by smelling. As for the experimental part: The experimental system for following the neutralization of an exemplary malodorous compound trimethylamine (TMA) by an exemplary malodor neutralizing agent aldehyde myrac aldehyde, was based on assaying the CHO functional group using the Park-Johnson method [Park, J. T. and Johnson, M. J., J. Biol. Chem., 1949, 181, p. 149]. TMA levels were analyzed using Siemens Multistix 10 SG reagent strips.
Determination of the concentration of myrac aldehyde needed to neutralize TMA malodor was evaluated by smelling 2 ml samples of an aqueous solution containing 2 mM TMA (4 micromole of TMA in 2 ml of water). […]

The subject of series [2] is hyaluronidase Type IV-S, from bovine testes (Hyase). Briefly: Dische's assay (Method II) of HA degradation by Hyase with inhibitors. It is filed as biochemical. Conditions: for % HA degraded: 20 μL inhibitor stock incubated 2 h with 20 μL Hyase, then HA 200 μL; for % HA degraded / % HA intact (precipitated): room temperature 24 h; for % of inhibition of HA degradation: derived from Table 1; for % HA intact (precipitated): represents % of Hyase inhibition, 20 μL inhibitor, 20 μL Hyase, HA 200 μL. As for the experimental part:
Method II (Dische's assay; detection of uronic acid residues): Assays were performed by following the procedures described in Dische Z. [J. Biol. Chem., 1947, 167, p. 189-198] and Dische and Rothschild [Anal Biochem., 1967, 21(1), p. 125-30]. In these assays, molecules containing the uronic acid residues found in the precipitate formed upon CPC additions, are re-solubilized and products formed by -sulfuric acid hydrolysis of these fragments are detected by a spectrophotometric assay employing carbazole chromagen reagent. In addition, small residues degraded off the HA chains that have not precipitated with the addition of CPC, can be detected by the carbazole assay performed on the solution, so as to detect all of the uronic acid content.
Evaluation of HA degradation by this method was generally performed as follows:
20 μL of a NAC stock solution, and 20 μL of the stock solutions of the other inhibitors were used in the assay.
200 μL of the HA stock solution were placed in each tube, for achieving a 1 mg HA per tube.
Twenty (20) μL of hyase and 20 μL of NAC were combined and incubated for 2 hours. Then 200 μL of HA (1 mg) were added to each tube and the mixture was incubated at room temperature for 24 hours. Thereafter, the tubes were heated for 2 minutes in boiling water bath and 8 mL of doubled distilled water were added to the tubes as preparation for the Dische's assay.
As per Dische's Assay, 100 μL of 3N NaCl and 0.5 mL of 10% CPC (cetylpyridinium chloride) were thereafter added to each tube and the mixture was incubated at 37° C. until flocculation-turbidity (resulting from precipitation of HA+CPC) could be observed. The mixture was centrifuged for 10 minutes at 10,000 g at room temperature, and the supernatant was thereafter separated from the obtained pellet.
The pellet was dissolved in 1 ml of CaCl2, and the obtained solution was incubated at 37° C. until complete dissolution of the pellet is obtained. A 2:1 v/v ethanol/ether mixture (8 ml) was thereafter added, and the mixture was intensively stirred (by vortex) and kept at −20° C. overnight. The obtained pellet was collected following a centrifugation for 10 minutes at 10,000 g. Then, distilled water (1 mL) was added to solubilize the pellet, followed by addition of 0.2 ml Carbazole 1%. The mixture was stirred thoroughly, and concentrated sulfuric acid (6 mL) was thereafter added.
The samples were transferred into tight closed tubes, placed for 10 minutes in a boiling water bath, and was thereafter cooled in ice until it reached room temperature.
The pink-violet color developed by the chromogen was measured using a spectrophotometer at 527 nm.
Ditch assay, as described hereinabove (Method II) was performed while using the following Hyase inhibitors:
The experiment was run at room temperature (23° C.). Hyase and Inhibitors were incubated first for 2 hours prior to the addition of HA. Blank tubes included no substrate (HA) and Control tubes included no enzyme, no inhibitor and HA (200 μL). Tubes 5 and 6 contained HA and Hyase with no inhibitor. Standard Solutions with no enzyme and no inhibitor and HA 50 μL and 10 μL were also tested, for calibration. % HA cleaved denotes the weight percent of HA that was degraded. % HA residue denotes the weight percent of non-degraded HA, and represents the % of Hyase inhibition.

Series [3] is described as follows: HA gelation consistency (Method III) with inhibitors, no Hyase. It is filed as physicochemical. Conditions: for Consistency: Table 8: HA 1% 2cc + 20 μL inhibitor stock. As for the experimental part:
Method III (Viscosity of HA): HA at low concentrations (e.g., 1%) in aqueous solution forms a viscous colloidal hydrogel solution, which yields semi-solid gel particles at room temperature and a solid gel at 4° C.
HA degradation was evaluated using Method III, as described hereinabove.
HA Gelation in the presence of Hyase Inhibitors, without Hyase was studied while using the following Stock solutions:
To each tube containing 2 mL of 1% HA one of the following inhibitors: SCG, Tranilast, and Glutathione (100 μL of each), and NAC (50 μL) was added. […] No Hyase was present.
Using the same protocols as above, HA degradation was tested following incubation of HA (2 ml of a 1% Stock solution) and a Hyase inhibitor (20 μL of a stock solution as described hereinabove), at 37° C., in the presence and absence of Hyase.

With `CC(C)=CCCC1=CCC(C=O)CC1` (stereo not shown) [myrac aldehyde, 4-(4-methylpent-3-enyl)cyclohex-3-ene-1-carbaldehyde], the “concentration from which the scent of myrac aldehyde is perceived and masks the smell of TMA” value in series [1] (2 mM TMA in water) is no less than 4%. Besides, the “concentration of myrac aldehyde that can neutralize the smell of TMA” value in series [1] (2 mM TMA in water) is reported as “about 2%”. For the same compound, the Perceived scent entry is listed as “Strong fishy” in series [1] (Sample 1: 2 μl aldehyde in 2 ml TMA 2 mM solution, 0.1 percent aldehyde); “fishy” in series [1] (Sample 2: 10 μl aldehyde in 2 ml TMA 2 mM solution, 0.5 percent aldehyde); “Faint fishy” in series [1] (Sample 3: 20 μl aldehyde in 2 ml TMA 2 mM solution, 1 percent aldehyde); “No scent” in series [1] (Sample 4: 40 μl aldehyde in 2 ml TMA 2 mM solution, 2 percent aldehyde); “Faint myrac” in series [1] (Sample 5: 80 μl aldehyde in 2 ml TMA 2 mM solution, 4 percent aldehyde); “Myrac” in series [1] (Sample 6: 100 μl aldehyde in 2 ml TMA 2 mM solution, 5 percent aldehyde). For the same compound, the Perceived scent result was “Myrac” in series [1] (Sample 7: 200 μl aldehyde in 2 ml TMA 2 mM solution, 10 percent aldehyde); “Strong Myrac” in series [1] (Sample 8: 300 μl aldehyde in 2 ml TMA 2 mM solution, 15 percent aldehyde); “Strong myrac” in series [1] (Sample 9: 400 μl aldehyde in 2 ml TMA 2 mM solution, 20 percent aldehyde).
Consider `N[C@@H](CCC(=O)N[C@@H](CS)C(=O)NCC(=O)O)C(=O)O` [Glutathione, Reduced Glutathione], for which, in series [2], the “% HA degraded” value amounted to 82%, the “% of inhibition of HA degradation” value was 18% and the “% HA intact (precipitated)” value is given as 18%. Besides, the HA gel consistency result in series [3] (2 mL 1% HA + inhibitor stock (100 μL; NAC 50 μL), 37° C. 24 hours) was “viscous liquid”. Also, in series [3] (at 4° C.), the Consistency entry is “Solid (for a solid the results were in the range of 80-100 Pa S and higher)”. Also, the Consistency result in series [3] (at 37° C.) was “Viscous liquid (for a viscous liquid in the range of 1-10 Pa S)”.
With `O=C(O)c1cc(=O)c2c(OCC(O)COc3cccc4oc(C(=O)O)cc(=O)c34)cccc2o1` [Cromoglycate, sodium Cromoglycate], in series [2], the “% HA degraded” value came out at 96.7%, the “% of inhibition of HA degradation” value was 3.3% and the “% HA intact (precipitated)” value is 3.3%. Moreover, the Consistency result in series [3] (at 4° C.) is “Solid (for a solid the results were in the range of 80-100 Pa S and higher)”. Moreover, the Consistency result in series [3] (at 37° C.) is reported as “Semisolid (for a semi-solid in the range of 50-70 Pa S)”.
